The values that follow come from ChEMBL document CHEMBL5465560, “Selectivity Literature for EUbOPEN Chemogenomic Library” (2024).

A word on the IC50: it is the concentration that gives 50% inhibition. A higher IC50 goes with weaker potency in that assay.

Assay [1] concerns the target T1, Calcium/calmodulin-dependent protein kinase type IV (Homo sapiens) (UniProt Q16566).
T1 sequence (whole entry): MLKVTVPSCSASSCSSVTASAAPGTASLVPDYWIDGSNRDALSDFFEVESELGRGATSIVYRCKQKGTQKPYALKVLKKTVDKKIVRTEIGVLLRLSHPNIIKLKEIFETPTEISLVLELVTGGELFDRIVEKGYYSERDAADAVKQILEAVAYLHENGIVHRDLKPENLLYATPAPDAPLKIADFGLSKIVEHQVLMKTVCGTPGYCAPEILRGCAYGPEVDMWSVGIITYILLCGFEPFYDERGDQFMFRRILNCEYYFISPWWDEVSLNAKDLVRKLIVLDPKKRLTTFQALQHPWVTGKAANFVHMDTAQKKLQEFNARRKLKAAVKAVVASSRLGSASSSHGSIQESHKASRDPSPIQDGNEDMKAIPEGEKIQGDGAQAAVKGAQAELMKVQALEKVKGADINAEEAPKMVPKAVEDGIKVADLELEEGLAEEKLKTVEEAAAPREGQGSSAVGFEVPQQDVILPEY
The experiment in a line: Selectivity interaction (Kinase panel (KiNativ target engagement assay in Jurkat cells)) EUB0001635a CAMK4. The class given is cell-based. The settings on record: Selectivity number of off-targets 0.0, Selectivity number of targets 233.0, Source Knowledge https://www.sciencedirect.com/science/article/pii/S2451945619300674?via%3Dihub, at 1 µM.

Assay [2] concerns the target T2, Dual specificity mitogen-activated protein kinase kinase 6 (Homo sapiens) (UniProt P52564).
T2 sequence (whole entry): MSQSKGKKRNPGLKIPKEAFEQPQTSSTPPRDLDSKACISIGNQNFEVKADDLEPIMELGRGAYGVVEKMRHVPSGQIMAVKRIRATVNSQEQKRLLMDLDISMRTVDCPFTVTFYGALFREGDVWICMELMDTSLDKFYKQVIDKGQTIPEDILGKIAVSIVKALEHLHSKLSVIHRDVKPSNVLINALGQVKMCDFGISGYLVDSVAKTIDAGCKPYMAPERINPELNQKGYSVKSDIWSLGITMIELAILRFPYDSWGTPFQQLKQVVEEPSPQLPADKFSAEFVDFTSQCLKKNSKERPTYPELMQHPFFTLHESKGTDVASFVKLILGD
The experiment in a line: Selectivity interaction (KinomeScan (DiscoverX)) EUB0000607a MAP2K6. The following applies: at 10 µM.

Assay [3] concerns the target Serine/threonine-protein kinase WNK1 (Homo sapiens) (UniProt Q9H4A3). The experiment in a line: Selectivity interaction (KinomeScan (DiscoverX)) EUB0000229b WNK1. The settings on record: at 10 µM.
Assay [4] concerns the target T3, Myotonin-protein kinase (Homo sapiens) (UniProt Q09013).
T3 sequence (whole entry): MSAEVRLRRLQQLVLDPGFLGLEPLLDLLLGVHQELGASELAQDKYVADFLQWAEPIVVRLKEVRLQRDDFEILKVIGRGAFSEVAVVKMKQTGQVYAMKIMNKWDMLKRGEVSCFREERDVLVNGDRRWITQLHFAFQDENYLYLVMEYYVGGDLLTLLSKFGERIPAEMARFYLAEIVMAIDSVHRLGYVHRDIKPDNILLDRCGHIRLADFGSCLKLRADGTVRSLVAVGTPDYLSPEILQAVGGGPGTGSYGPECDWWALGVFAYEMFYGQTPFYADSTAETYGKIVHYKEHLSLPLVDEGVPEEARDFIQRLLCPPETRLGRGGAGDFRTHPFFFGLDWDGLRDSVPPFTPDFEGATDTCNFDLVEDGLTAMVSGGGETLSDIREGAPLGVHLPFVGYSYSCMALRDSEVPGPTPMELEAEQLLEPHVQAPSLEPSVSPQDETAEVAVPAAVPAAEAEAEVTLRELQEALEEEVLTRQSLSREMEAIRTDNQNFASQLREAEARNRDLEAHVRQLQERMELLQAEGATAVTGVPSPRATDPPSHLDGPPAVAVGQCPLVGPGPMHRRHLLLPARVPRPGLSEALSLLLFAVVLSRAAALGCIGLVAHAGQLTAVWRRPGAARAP
The experiment in a line: Selectivity interaction (KinomeScan (DiscoverX)) EUB0000655a DMPK. The following applies: at 10 µM.

Assay [5] deals with Phosphatidylinositol 4-phosphate 5-kinase type-1 gamma (Homo sapiens) (UniProt O60331). The experiment in a line: Selectivity interaction (ProQinase) EUB0000171b PIP5K1C. The settings on record: at 1 µM.
Assay [6] has as its target MAP kinase-interacting serine/threonine-protein kinase 2 (Homo sapiens, UniProt Q9HBH9). The experiment in a line: Selectivity interaction (KinomeScan (DiscoverX)) EUB0000092b MKNK2. The following applies: at 10 µM.
Assay [7] concerns the target T4, Interleukin-1 receptor-associated kinase 4 (Homo sapiens, UniProt Q9NWZ3).
T4 sequence (Q9NWZ3 whole entry): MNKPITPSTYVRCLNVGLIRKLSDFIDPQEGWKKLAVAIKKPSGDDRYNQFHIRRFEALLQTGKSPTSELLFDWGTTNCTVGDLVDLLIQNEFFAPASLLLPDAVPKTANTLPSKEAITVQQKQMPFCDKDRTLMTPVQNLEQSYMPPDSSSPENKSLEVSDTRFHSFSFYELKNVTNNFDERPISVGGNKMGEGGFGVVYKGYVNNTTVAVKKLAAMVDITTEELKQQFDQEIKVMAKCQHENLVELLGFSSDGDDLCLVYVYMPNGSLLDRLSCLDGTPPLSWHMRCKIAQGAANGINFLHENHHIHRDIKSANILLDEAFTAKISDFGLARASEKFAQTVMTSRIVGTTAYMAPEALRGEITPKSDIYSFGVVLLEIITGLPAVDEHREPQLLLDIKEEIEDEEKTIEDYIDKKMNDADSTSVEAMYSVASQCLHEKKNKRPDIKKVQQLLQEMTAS
The experiment in a line: Selectivity interaction (Enzymatic assay) EUB0001550a IRAK4.

Sequence of MAP kinase-interacting serine/threonine-protein kinase 2 (Q9HBH9 whole entry, looked up): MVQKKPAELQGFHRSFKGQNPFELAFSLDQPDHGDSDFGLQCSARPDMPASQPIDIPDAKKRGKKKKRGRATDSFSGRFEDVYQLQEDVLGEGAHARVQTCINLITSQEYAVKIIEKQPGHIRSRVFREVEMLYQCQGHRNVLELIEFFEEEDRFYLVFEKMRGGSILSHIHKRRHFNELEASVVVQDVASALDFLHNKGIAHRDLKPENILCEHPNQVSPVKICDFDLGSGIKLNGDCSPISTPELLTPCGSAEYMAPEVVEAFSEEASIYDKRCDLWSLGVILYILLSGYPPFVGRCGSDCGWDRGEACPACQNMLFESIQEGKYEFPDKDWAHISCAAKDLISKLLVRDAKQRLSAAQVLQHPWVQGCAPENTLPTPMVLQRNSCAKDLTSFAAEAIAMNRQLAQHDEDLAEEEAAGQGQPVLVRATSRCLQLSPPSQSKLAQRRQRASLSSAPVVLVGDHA
Sequence of Serine/threonine-protein kinase WNK1 (Homo sapiens) (Q9H4A3 whole entry, looked up): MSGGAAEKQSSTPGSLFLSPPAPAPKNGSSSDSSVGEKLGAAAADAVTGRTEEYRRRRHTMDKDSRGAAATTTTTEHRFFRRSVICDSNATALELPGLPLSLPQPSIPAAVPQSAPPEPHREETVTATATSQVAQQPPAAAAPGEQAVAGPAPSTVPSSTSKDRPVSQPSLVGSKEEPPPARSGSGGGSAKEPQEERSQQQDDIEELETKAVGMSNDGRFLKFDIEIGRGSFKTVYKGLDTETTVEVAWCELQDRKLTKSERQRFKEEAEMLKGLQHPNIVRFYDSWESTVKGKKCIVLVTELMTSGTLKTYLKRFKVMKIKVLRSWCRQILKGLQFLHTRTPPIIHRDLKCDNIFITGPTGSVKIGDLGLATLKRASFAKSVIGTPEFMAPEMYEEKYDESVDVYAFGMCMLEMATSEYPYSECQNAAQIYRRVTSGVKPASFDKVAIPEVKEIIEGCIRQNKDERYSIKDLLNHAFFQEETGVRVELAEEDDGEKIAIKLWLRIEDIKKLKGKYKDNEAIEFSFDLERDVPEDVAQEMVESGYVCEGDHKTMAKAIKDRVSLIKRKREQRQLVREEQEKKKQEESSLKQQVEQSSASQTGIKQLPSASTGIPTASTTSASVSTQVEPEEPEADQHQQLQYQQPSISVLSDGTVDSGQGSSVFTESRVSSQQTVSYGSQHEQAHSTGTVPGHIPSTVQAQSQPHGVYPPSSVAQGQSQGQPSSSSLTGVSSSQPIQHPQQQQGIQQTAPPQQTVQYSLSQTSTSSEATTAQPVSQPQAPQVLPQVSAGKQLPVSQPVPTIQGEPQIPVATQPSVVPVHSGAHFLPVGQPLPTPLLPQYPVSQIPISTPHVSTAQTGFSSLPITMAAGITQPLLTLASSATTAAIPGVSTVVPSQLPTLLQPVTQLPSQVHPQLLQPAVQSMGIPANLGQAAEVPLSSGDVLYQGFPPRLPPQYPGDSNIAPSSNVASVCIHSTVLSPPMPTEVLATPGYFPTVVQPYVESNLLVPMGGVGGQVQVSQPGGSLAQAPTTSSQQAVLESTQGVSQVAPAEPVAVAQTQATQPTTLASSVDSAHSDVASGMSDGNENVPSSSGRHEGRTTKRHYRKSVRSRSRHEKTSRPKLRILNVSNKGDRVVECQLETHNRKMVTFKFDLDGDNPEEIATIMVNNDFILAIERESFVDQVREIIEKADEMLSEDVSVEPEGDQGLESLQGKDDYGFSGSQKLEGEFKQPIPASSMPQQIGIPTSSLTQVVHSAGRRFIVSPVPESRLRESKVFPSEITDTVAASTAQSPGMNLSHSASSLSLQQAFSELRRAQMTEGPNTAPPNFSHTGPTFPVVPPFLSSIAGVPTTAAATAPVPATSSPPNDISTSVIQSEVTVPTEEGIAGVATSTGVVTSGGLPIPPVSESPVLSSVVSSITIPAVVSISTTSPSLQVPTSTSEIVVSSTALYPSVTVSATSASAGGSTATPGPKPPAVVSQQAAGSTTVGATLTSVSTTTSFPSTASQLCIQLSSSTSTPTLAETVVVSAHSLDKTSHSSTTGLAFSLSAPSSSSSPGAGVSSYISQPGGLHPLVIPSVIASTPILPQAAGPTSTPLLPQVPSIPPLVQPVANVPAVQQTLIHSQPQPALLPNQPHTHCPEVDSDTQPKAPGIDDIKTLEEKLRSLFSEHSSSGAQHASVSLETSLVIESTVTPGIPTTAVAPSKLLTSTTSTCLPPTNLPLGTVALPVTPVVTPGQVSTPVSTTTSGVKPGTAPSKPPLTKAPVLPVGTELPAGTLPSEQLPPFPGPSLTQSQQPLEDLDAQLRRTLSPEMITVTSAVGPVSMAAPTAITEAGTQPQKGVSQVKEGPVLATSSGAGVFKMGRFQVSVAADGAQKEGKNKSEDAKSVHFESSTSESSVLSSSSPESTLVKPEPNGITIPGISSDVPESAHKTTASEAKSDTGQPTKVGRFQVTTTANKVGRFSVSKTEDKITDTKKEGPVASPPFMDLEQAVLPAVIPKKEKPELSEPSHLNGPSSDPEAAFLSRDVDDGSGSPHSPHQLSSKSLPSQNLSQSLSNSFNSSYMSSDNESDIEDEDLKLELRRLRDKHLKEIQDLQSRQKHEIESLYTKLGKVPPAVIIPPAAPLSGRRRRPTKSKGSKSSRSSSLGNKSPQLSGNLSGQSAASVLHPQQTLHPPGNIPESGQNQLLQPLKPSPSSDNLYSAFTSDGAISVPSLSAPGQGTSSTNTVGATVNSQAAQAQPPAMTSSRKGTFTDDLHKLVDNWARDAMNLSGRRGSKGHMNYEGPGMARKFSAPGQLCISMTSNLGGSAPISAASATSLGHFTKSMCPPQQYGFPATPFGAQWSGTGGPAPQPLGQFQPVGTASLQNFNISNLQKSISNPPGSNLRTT
Sequence of Phosphatidylinositol 4-phosphate 5-kinase type-1 gamma (Homo sapiens) (O60331 whole entry): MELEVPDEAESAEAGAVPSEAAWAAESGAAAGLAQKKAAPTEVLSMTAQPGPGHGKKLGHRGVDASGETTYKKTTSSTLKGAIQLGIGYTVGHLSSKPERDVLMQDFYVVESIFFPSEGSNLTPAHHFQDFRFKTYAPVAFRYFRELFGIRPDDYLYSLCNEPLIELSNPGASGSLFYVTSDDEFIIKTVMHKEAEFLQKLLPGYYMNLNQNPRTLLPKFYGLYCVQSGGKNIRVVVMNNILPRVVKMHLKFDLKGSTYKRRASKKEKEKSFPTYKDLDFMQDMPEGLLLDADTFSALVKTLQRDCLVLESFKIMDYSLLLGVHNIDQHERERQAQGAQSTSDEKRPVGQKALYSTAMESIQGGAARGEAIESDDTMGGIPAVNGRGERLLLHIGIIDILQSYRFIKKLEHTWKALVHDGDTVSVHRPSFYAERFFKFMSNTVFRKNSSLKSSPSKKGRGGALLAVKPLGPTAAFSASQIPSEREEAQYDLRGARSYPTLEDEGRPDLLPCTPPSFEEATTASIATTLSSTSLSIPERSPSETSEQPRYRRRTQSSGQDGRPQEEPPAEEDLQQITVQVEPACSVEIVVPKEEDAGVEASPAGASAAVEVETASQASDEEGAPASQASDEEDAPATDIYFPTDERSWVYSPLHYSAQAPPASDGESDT

In the case of `C=CC(=O)Nc1ccc(C(=O)Nc2[nH]nc3c2CN(C(=O)N[C@H](CN(C)C)c2ccccc2)C3(C)C)cc1`, in assay [1], the % of engagement is -6.4%. For `CNC(=O)Nc1ccc(-c2nc(N3CC4CCC(C3)O4)c3cnn(C4CCC5(CC4)OCCO5)c3n2)cc1`, in assay [2], the % of control turned out to be 95%. The compound `COc1cc(N(C)c2ccnc3ccc(C(F)(F)F)cc23)cc(OC)c1OC` gave a % binding in assay [3] of 72%. On to `CN(C)CCOc1ccc(-c2nc(-c3ccncc3)c(-c3ccc4c(c3)CC/C4=N\O)[nH]2)cc1`, for which the % of control in assay [4] was 100%. In turn, `C=CC(=O)Nc1cccc(C(=O)Nc2ccc(Nc3cc(-c4[nH]c(SC)nc4C)ccn3)cc2)c1` displayed a % of control in assay [5] of 107%. Take `CCC(=O)N1CCN(c2ccc(-n3c(=O)ccc4cnc5ccc(-c6cnc7ccccc7c6)cc5c43)cc2C(F)(F)F)CC1`: the % of control in assay [6] amounted to 54%. For `CN(C)CC#Cc1ccc2[nH]c3c(c2c1)-c1nc(N)ncc1CCC3`, inhibition in assay [7] was half-maximal at 4.5 µM (IC50).
